# Laboratory results published in PubChem BioAssay (NCI).
#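 Exposure lasted 48 hours, with cells grown in 96-well plates and compounds tested at five concentrations. Here, GI50 denotes the concentration required for 50% inhibition of growth. TGI denotes the concentration required for complete inhibition of growth.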 Where a SMILES comes first, the peptide text is derived from it. [ ]: non-standard residue; d: D form. The star is where a group is joined. dTle = CC(C)(C)[C@@H](N)C(=O)O; 4Abz = Nc1ccc(C(=O)O)cc1; NHOH = ON*
# Key:
# Assay in all cases: NCI anticancer screen, dose series, 48 h
# SF-268 CNS = test system: SF-268 CNS
# BT-549 breast = test system: BT-549 breast
# SNB-75 CNS = test system: SNB-75 CNS
# CAKI-1 renal = test system: CAKI-1 renal
# HS 578T breast = test system: HS 578T breast
# SK-MEL-5 melanoma = test system: SK-MEL-5 melanoma
# MDA-MB-435 = test system: MDA-MB-435
# OVCAR-3 ovarian = test system: OVCAR-3 ovarian
# OVCAR-4 ovarian = test system: OVCAR-4 ovarian
# HOP-92 NSCLC = test system: HOP-92 NSCLC
# RXF 393 renal = test system: RXF 393 renal
# OVCAR-8 ovarian = test system: OVCAR-8 ovarian
# 786-0 renal = test system: 786-0 renal
# UO-31 renal = test system: UO-31 renal
# NCI-H226 lung = test system: NCI-H226 lung
# HCT-15 colon = test system: HCT-15 colon
# NCI/ADR-RES ovarian = test system: NCI/ADR-RES ovarian
# UACC-62 melanoma = test system: UACC-62 melanoma
# A498 renal = test system: A498 renal
# MALME-3M melanoma = test system: MALME-3M melanoma
# SK-MEL-2 melanoma = test system: SK-MEL-2 melanoma
# SF-539 CNS = test system: SF-539 CNS
# U251 CNS = test system: U251 CNS
# TK-10 renal = test system: TK-10 renal
# COLO 205 colon = test system: COLO 205 colon
# HL-60(TB) leukemia = test system: HL-60(TB) leukemia
# EKVX NSCLC = test system: EKVX NSCLC
# KM12 colon = test system: KM12 colon
# SK-OV-3 ovarian = test system: SK-OV-3 ovarian
# IGROV1 ovarian = test system: IGROV1 ovarian
# T-47D breast = test system: T-47D breast
# A549 NSCLC = test system: A549 NSCLC
# SN12C renal = test system: SN12C renal
# SK-MEL-28 melanoma = test system: SK-MEL-28 melanoma
# HCC-2998 colon = test system: HCC-2998 colon
# NCI-H23 lung = test system: NCI-H23 lung
# OVCAR-5 ovarian = test system: OVCAR-5 ovarian
# PC-3 prostate = test system: PC-3 prostate
# SW-620 colon = test system: SW-620 colon
# K-562 leukemia = test system: K-562 leukemia
# HT29 colon = test system: HT29 colon
# HCT-116 colon = test system: HCT-116 colon
# SNB-19 CNS = test system: SNB-19 CNS
# ACHN renal = test system: ACHN renal
# MOLT-4 leukemia = test system: MOLT-4 leukemia
# UACC-257 melanoma = test system: UACC-257 melanoma
# NCI-H522 lung = test system: NCI-H522 lung
# DU-145 prostate = test system: DU-145 prostate
# HOP-62 NSCLC = test system: HOP-62 NSCLC
# MCF7 breast = test system: MCF7 breast
# SF-295 CNS = test system: SF-295 CNS
# MDA-MB-231 breast = test system: MDA-MB-231 breast
# M14 melanoma = test system: M14 melanoma
# LOX IMVI melanoma = test system: LOX IMVI melanoma
# NCI-H460 lung = test system: NCI-H460 lung
smiles,measurement,setting,value
Nc1ccc(-c2cccs2)cc1NC(=O)c1ccc(CCCC(=O)Nc2ccc(C3CC3N)cc2)cc1 (stereo not drawn),GI50,SF-268 CNS,2.33 µM
same,TGI,SF-268 CNS,5.47 µM
same,GI50,BT-549 breast,2.69 µM
same,TGI,BT-549 breast,> 100 µM
same,GI50,SNB-75 CNS,1.65 µM
same,TGI,SNB-75 CNS,4.27 µM
same,GI50,CAKI-1 renal,> 100 µM
same,TGI,CAKI-1 renal,> 100 µM
same,GI50,HS 578T breast,7.93 µM
same,TGI,HS 578T breast,> 100 µM
same,GI50,SK-MEL-5 melanoma,1.91 µM
same,TGI,SK-MEL-5 melanoma,6.23 µM
same,GI50,MDA-MB-435,1.74 µM
same,TGI,MDA-MB-435,4 µM
same,GI50,OVCAR-3 ovarian,1.48 µM
same,TGI,OVCAR-3 ovarian,3.14 µM
same,GI50,OVCAR-4 ovarian,1.52 µM
same,TGI,OVCAR-4 ovarian,3.3 µM
same,GI50,HOP-92 NSCLC,11 µM
same,TGI,HOP-92 NSCLC,> 100 µM
same,GI50,RXF 393 renal,2.45 µM
same,TGI,RXF 393 renal,30 µM
same,GI50,OVCAR-8 ovarian,1.65 µM
same,TGI,OVCAR-8 ovarian,4.48 µM
same,GI50,786-0 renal,1.61 µM
same,TGI,786-0 renal,3.37 µM
same,GI50,UO-31 renal,23.3 µM
same,TGI,UO-31 renal,> 100 µM
same,GI50,NCI-H226 lung,2.7 µM
same,TGI,NCI-H226 lung,7.57 µM
same,GI50,HCT-15 colon,5.99 µM
same,TGI,HCT-15 colon,> 100 µM
same,GI50,NCI/ADR-RES ovarian,> 100 µM
same,TGI,NCI/ADR-RES ovarian,> 100 µM
same,GI50,UACC-62 melanoma,1.28 µM
same,TGI,UACC-62 melanoma,5.47 µM
same,GI50,A498 renal,20.4 µM
same,TGI,A498 renal,92 µM
same,GI50,MALME-3M melanoma,1.06 µM
same,TGI,MALME-3M melanoma,3.77 µM
same,GI50,SK-MEL-2 melanoma,7.28 µM
same,TGI,SK-MEL-2 melanoma,> 100 µM
same,GI50,SF-539 CNS,2.42 µM
same,TGI,SF-539 CNS,7.94 µM
same,GI50,U251 CNS,1.6 µM
same,TGI,U251 CNS,3.16 µM
same,GI50,TK-10 renal,2.44 µM
same,TGI,TK-10 renal,39.2 µM
same,GI50,COLO 205 colon,2.44 µM
same,TGI,COLO 205 colon,> 100 µM
same,GI50,HL-60(TB) leukemia,2.54 µM
same,TGI,HL-60(TB) leukemia,> 100 µM
same,GI50,EKVX NSCLC,3.5 µM
same,TGI,EKVX NSCLC,> 100 µM
same,GI50,KM12 colon,3.43 µM
same,TGI,KM12 colon,> 100 µM
same,GI50,SK-OV-3 ovarian,4.37 µM
same,TGI,SK-OV-3 ovarian,37.1 µM
same,GI50,IGROV1 ovarian,4.8 µM
same,TGI,IGROV1 ovarian,> 100 µM
same,GI50,T-47D breast,1.75 µM
same,TGI,T-47D breast,4.82 µM
C[C@@H](NC(=O)[C@H](NC(=O)[C@@H]1CCCN1C(=O)CNC(=O)c1ccc(N)cc1)C(C)(C)C)C(=O)NO (H-[4Abz]GP[dTle][dA]-{NHOH}),GI50,SF-268 CNS,> 100 µM
same,TGI,SF-268 CNS,> 100 µM
same,GI50,BT-549 breast,> 100 µM
same,TGI,BT-549 breast,> 100 µM
same,GI50,A549 NSCLC,> 100 µM
same,TGI,A549 NSCLC,> 100 µM
same,GI50,SN12C renal,> 100 µM
same,TGI,SN12C renal,> 100 µM
same,GI50,SNB-75 CNS,> 100 µM
same,TGI,SNB-75 CNS,> 100 µM
same,GI50,CAKI-1 renal,> 100 µM
same,TGI,CAKI-1 renal,> 100 µM
same,GI50,HS 578T breast,> 100 µM
same,TGI,HS 578T breast,> 100 µM
same,GI50,SK-MEL-5 melanoma,> 100 µM
same,TGI,SK-MEL-5 melanoma,> 100 µM
same,GI50,MDA-MB-435,> 100 µM
same,TGI,MDA-MB-435,> 100 µM
same,GI50,SK-MEL-28 melanoma,> 100 µM
same,TGI,SK-MEL-28 melanoma,> 100 µM
same,GI50,OVCAR-3 ovarian,> 100 µM
same,TGI,OVCAR-3 ovarian,> 100 µM
same,GI50,OVCAR-4 ovarian,> 100 µM
same,TGI,OVCAR-4 ovarian,> 100 µM
same,GI50,HCC-2998 colon,> 100 µM
same,TGI,HCC-2998 colon,> 100 µM
same,GI50,NCI-H23 lung,> 100 µM
same,TGI,NCI-H23 lung,> 100 µM
same,GI50,HOP-92 NSCLC,5.76 µM
same,TGI,HOP-92 NSCLC,> 100 µM
same,GI50,OVCAR-5 ovarian,> 100 µM
same,TGI,OVCAR-5 ovarian,> 100 µM
same,GI50,PC-3 prostate,> 100 µM
same,TGI,PC-3 prostate,> 100 µM
same,GI50,OVCAR-8 ovarian,> 100 µM
same,TGI,OVCAR-8 ovarian,> 100 µM
same,GI50,SW-620 colon,> 100 µM
same,TGI,SW-620 colon,> 100 µM
same,GI50,K-562 leukemia,> 100 µM
same,TGI,K-562 leukemia,> 100 µM
same,GI50,786-0 renal,> 100 µM
same,TGI,786-0 renal,> 100 µM
same,GI50,HT29 colon,> 100 µM
same,TGI,HT29 colon,> 100 µM
same,GI50,UO-31 renal,> 100 µM
same,TGI,UO-31 renal,> 100 µM
same,GI50,NCI-H226 lung,> 100 µM
same,TGI,NCI-H226 lung,> 100 µM
same,GI50,HCT-15 colon,> 100 µM
same,TGI,HCT-15 colon,> 100 µM
same,GI50,HCT-116 colon,> 100 µM
same,TGI,HCT-116 colon,> 100 µM
same,GI50,NCI/ADR-RES ovarian,> 100 µM
same,TGI,NCI/ADR-RES ovarian,> 100 µM
same,GI50,UACC-62 melanoma,> 100 µM
same,TGI,UACC-62 melanoma,> 100 µM
same,GI50,A498 renal,> 100 µM
same,TGI,A498 renal,> 100 µM
same,GI50,SNB-19 CNS,> 100 µM
same,TGI,SNB-19 CNS,> 100 µM
same,GI50,ACHN renal,> 100 µM
same,TGI,ACHN renal,> 100 µM
same,GI50,MALME-3M melanoma,> 100 µM
same,TGI,MALME-3M melanoma,> 100 µM
same,GI50,MOLT-4 leukemia,> 100 µM
same,TGI,MOLT-4 leukemia,> 100 µM
same,GI50,UACC-257 melanoma,> 100 µM
same,TGI,UACC-257 melanoma,> 100 µM
same,GI50,NCI-H522 lung,> 100 µM
same,TGI,NCI-H522 lung,> 100 µM
same,GI50,DU-145 prostate,> 100 µM
same,TGI,DU-145 prostate,> 100 µM
same,GI50,HOP-62 NSCLC,> 100 µM
same,TGI,HOP-62 NSCLC,> 100 µM
same,GI50,MCF7 breast,> 100 µM
same,TGI,MCF7 breast,> 100 µM
same,GI50,SF-295 CNS,> 100 µM
same,TGI,SF-295 CNS,> 100 µM
same,GI50,SK-MEL-2 melanoma,> 100 µM
same,TGI,SK-MEL-2 melanoma,> 100 µM
same,GI50,SF-539 CNS,> 100 µM
same,TGI,SF-539 CNS,> 100 µM
same,GI50,MDA-MB-231 breast,> 100 µM
same,TGI,MDA-MB-231 breast,> 100 µM
same,GI50,U251 CNS,> 100 µM
same,TGI,U251 CNS,> 100 µM
same,GI50,M14 melanoma,> 100 µM
same,TGI,M14 melanoma,> 100 µM
same,GI50,TK-10 renal,> 100 µM
same,TGI,TK-10 renal,> 100 µM
same,GI50,COLO 205 colon,> 100 µM
same,TGI,COLO 205 colon,> 100 µM
same,GI50,EKVX NSCLC,> 100 µM
same,TGI,EKVX NSCLC,> 100 µM
same,GI50,LOX IMVI melanoma,> 100 µM
same,TGI,LOX IMVI melanoma,> 100 µM
same,GI50,KM12 colon,> 100 µM
same,TGI,KM12 colon,> 100 µM
same,GI50,SK-OV-3 ovarian,> 100 µM
same,TGI,SK-OV-3 ovarian,> 100 µM
same,GI50,IGROV1 ovarian,> 100 µM
same,TGI,IGROV1 ovarian,> 100 µM
same,GI50,T-47D breast,> 100 µM
same,TGI,T-47D breast,> 100 µM
same,GI50,NCI-H460 lung,> 100 µM
same,TGI,NCI-H460 lung,> 100 µM
